Data taken from ChEMBL document CHEMBL5523673, “Progress in the controllability technology of PROTAC” (Eur J Med Chem, 2024).
pIC50: −log10 of the molar value.

Experiments:
[1] = test system: MCF7; assay: Antiproliferative activity against human MCF7 cells assessed as reduction in cell viability incubated for 72 hrs by CellTiter-Glo luminescent assay; assay type: functional, cell-based; details: MCF7, 72 h
[2] = test system: MCF7; assay: Cytotoxicity against human MCF7 cells assessed as reduction in cell growth incubated for 72 hrs by CellTiter-Glo luminescent assay; assay type: functional, cell-based; details: MCF7, 72 h
[3] = target: T1, von Hippel-Lindau disease tumor suppressor/Bromodomain-containing protein 4 (Homo sapiens, UniProt O60885+P40337); assay: PROTAC activity at VHL/BRD4 in human MCF7 cells assessed as induction of BRD4 degradation incubated for 18 hrs by Western blotting analysis; assay type: cell-based
[4] = target: T1, von Hippel-Lindau disease tumor suppressor/Bromodomain-containing protein 4; assay: PROTAC activity at human VHL/BRD4 in human MCF7 cells assessed as maximum degradation of BRD4 measured after 18 hrs by Western blot analysis relative to control; assay type: cell-based
[5] = test system: OVCAR-8; assay: Antiproliferative activity against human OVCAR-8 cells assessed as reduction in cell viability incubated for 72 hrs by CCK-8 assay; assay type: functional, cell-based; details: OVCAR-8, 72 h
[6] = test system: T47D; assay: Antiproliferative activity against human T47D cells assessed as reduction in cell viability incubated for 72 hrs by CCK-8 assay; assay type: functional, cell-based
[7] = Antiproliferative activity against human HFF-1 cells assessed as reduction in cell viability incubated for 72 hrs by CCK-8 assay; assay type: toxicity, cell-based
[8] = Antiproliferative activity against human HK-2 cells assessed as reduction in cell viability incubated for 72 hrs by CCK-8 assay; assay type: toxicity, cell-based
[9] = Antiproliferative activity against mouse 3T3 cells assessed as reduction in cell viability incubated for 72 hrs by CCK-8 assay; assay type: toxicity, cell-based; details: NIH3T3 cells
[10] = target: Protein cereblon/Bromodomain-containing protein 4 (Homo sapiens) (UniProt O60885+Q96SW2); assay: PROTAC activity at CRBN/BRD4 in human NAMALVA cells assessed as maximal degradation at 1 uM incubated for 30 mins by Western blot analysis relative to control; assay type: cell-based
[11] = target: Epidermal growth factor receptor (Homo sapiens, UniProt P00533); assay: Inhibition of EGFR (unknown origin)
[12] = target: T1, von Hippel-Lindau disease tumor suppressor/Bromodomain-containing protein 4; assay: PROTAC activity at human VHL/BRD4 in human HeLa cells assessed as maximal degradation of BRD4 incubated for 24 hrs by Western blot analysis relative to control; assay type: cell-based

T1 sequence (P40337 whole entry, looked up, other chains not shown): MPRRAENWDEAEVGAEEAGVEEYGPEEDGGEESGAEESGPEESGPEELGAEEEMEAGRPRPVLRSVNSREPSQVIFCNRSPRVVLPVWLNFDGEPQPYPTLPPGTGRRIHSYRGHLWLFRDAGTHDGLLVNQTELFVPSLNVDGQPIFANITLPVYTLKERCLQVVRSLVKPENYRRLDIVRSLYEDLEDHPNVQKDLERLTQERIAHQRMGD
Protein cereblon/Bromodomain-containing protein 4 (Homo sapiens), sequence (Q96SW2 whole entry, looked up, other chains not shown): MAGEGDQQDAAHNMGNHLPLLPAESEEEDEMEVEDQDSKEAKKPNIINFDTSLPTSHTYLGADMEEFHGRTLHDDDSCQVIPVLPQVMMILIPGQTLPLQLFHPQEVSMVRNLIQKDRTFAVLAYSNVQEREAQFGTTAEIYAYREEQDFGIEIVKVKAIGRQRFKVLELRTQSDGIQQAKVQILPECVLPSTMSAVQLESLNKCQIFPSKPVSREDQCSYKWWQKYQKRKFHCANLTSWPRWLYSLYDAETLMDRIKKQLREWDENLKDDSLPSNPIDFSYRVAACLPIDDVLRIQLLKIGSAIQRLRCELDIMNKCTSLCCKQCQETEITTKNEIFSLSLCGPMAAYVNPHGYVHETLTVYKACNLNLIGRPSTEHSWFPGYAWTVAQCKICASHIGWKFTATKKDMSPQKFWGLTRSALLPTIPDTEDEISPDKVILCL
Epidermal growth factor receptor, sequence (P00533 whole entry): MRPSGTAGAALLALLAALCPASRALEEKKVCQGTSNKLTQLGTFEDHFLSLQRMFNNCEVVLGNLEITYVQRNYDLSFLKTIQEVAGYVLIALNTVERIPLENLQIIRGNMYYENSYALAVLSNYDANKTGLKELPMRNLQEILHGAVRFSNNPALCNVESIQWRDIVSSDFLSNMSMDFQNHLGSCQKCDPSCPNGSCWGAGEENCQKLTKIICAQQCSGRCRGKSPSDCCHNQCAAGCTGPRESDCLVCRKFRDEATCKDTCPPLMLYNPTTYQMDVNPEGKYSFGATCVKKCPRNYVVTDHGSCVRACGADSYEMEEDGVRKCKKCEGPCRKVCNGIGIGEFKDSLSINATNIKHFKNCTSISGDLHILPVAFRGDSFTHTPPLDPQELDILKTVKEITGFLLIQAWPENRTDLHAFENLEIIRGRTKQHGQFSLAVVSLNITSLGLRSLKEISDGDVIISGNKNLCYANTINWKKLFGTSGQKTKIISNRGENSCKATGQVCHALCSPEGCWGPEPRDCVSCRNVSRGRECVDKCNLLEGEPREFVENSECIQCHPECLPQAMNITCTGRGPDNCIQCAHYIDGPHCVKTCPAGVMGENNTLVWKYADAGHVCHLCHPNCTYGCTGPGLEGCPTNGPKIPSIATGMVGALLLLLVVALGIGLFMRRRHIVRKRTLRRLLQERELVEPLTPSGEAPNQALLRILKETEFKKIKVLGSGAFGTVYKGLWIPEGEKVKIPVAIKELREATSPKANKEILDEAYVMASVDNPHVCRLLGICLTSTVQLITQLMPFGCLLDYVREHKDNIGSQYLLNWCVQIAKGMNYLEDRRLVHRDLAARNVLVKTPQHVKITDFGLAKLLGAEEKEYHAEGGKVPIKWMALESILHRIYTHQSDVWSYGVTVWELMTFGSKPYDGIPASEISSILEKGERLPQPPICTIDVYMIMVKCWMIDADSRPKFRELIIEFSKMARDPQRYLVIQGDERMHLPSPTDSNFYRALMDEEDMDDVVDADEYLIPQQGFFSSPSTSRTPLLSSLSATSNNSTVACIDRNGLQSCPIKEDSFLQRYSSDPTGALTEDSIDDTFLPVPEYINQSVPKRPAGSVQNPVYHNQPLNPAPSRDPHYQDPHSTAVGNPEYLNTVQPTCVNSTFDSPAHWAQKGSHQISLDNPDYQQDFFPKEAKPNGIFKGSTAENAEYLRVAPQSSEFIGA

pIC50 [1] | pIC50 [5] | pIC50 [6] | Compound | IC50 at 72 h [7] | IC50 at 72 h [8] | IC50 at 72 h [9] | other results
6.91 |  |  | Cc1sc2c(c1C)C(c1ccc(Cl)cc1)=N[C@@H](CC(=O)NCCCCCN(Cc1ccc(B(O)O)cc1)c1cccc3c1CN(C1CCC(=O)NC1=O)C3=O)c1nnc(C)n1-2 (stereo partly drawn) |  |  |  | pIC50 [2]: 5.99; DC50 [3]: 31.2 nM; Emax [4]: 77.5%
6.92 | 6.67 | 7.89 | Cc1ncsc1-c1ccc([C@H](C)NC(=O)[C@@H]2C[C@@H](O)CN2C(=O)[C@@H](NC(=O)COCCCOCCNC(=O)C[C@@H]2N=C(c3ccc(Cl)cc3)c3c(sc(C)c3C)-n3c(C)nnc32)C(C)(C)C)cc1 | 1100 nM | 160 nM | 210 nM | 
 | 6.53 | 7.74 | Cc1ncsc1-c1ccc([C@H](C)NC(=O)[C@@H]2C[C@@H](OC(=O)CCCCn3cc(CNC(=O)CC[C@H](NC(=O)c4ccc(NCc5cnc6nc(N)[nH]c(=O)c6n5)cc4)C(=O)O)nn3)CN2C(=O)[C@@H](NC(=O)COCCCOCCNC(=O)C[C@@H]2N=C(c3ccc(Cl)cc3)c3c(sc(C)c3C)-n3c(C)nnc32)C(C)(C)C)cc1 | > 10000 nM | 2100 nM | 1400 nM | 
 |  |  | COc1cc(CN(CCCCNC(=O)COc2cccc3c2C(=O)N(C2CCC(=O)NC2=O)C3=O)C(=O)CC2N=C(c3ccc(Cl)cc3)c3c(sc(C)c3C)-n3c(C)nnc32)c([N+](=O)[O-])cc1OC (stereo not drawn) |  |  |  | Emax [10]: 93%
 |  |  | COc1cc2ncnc(N(Cc3ccc([N+](=O)[O-])cc3)c3ccc(F)c(Cl)c3)c2cc1OCCOCCOCCOCCC(=O)Nc1cccc2c1CN(C1CCC(=O)NC1=O)C2=O (stereo not drawn) |  |  |  | pIC50 [11]: 5.45
 |  |  | Cc1ncsc1-c1ccc([C@H](C)NC(=O)[C@@H]2C[C@@H](OC(=O)Cc3ccc(B4OC(C)(C)C(C)(C)O4)cc3)CN2C(=O)[C@@H](NC(=O)COCCCOCCNC(=O)C[C@@H]2N=C(c3ccc(Cl)cc3)c3c(sc(C)c3C)-n3c(C)nnc32)C(C)(C)C)cc1 |  |  |  | Emax [12]: 70%
